Experimental findings from paper doi:10.1101/2025.04.10.648262, “Time-resolved phenotyping at subcellular resolution reveals shared principles and key trade-offs across antimicrobial peptide activities” (bioRxiv, 2026) are described below.

SMILES strings stand for the structures. Bridge positions count the residues as written; N and C are the ends. Peptide text beside a SMILES is read from it.

In this assay the test system is E. coli ATCC 25922. The assay is classed as cell-based, Escherichia coli. The note with it: E. coli ATCC 25922, M9gluCAAT, 37°C, 20 h; mode across four biological replicates. Here is the method: Strain ATCC 25922GFP (ATCC, Virginia, USA), which carries a GFP-expressing plasmid, was selected for biofilm experiments. The strain’s ability to form biofilms was first verified at 37°C using Congo Red staining on agar plate containing M9gluCAAT. Congo Red dye binds curli, a major component of the biofilm extracellular matrix. Strain ATCC 25922 (lacking the GFP-expressing plasmid) was used for MIC determination (to avoid interference from the presence of ampicillin required to maintain the plasmid) following the standard growth protocol described above.
To determine the minimal inhibitory concentration (MIC) of the selected AMPs against either MG1655 or ATCC 25922 E. coli strains, exponentially growing cells were diluted in fresh medium to an OD = 10^−6 (~500 cells/mL) and mixed 50:50 with titrated AMP concentrations (which were chosen to be over a range that included the MIC) in a 96-well plate (flat bottom with low evaporation lid, 3595, Corning, Arizona, USA). A final OD of 5 × 10^−7 corresponds to ~250 cells/mL. OD curves were sampled every 5 min for a total of 48 h using a microplate reader (BioTek Synergy 2, Agilent Technologies Inc., California, USA). Raw data were exported as a text file and analysed using a custom-written Python script (microplate_reader_analysis.py). To measure maximum growth rates, the log(OD) was fitted using a linear regression over a 12-point moving window (60 min), which provides the instantaneous growth rate (log(OD)/h), from which the global maximum was computed. The MIC was defined as the minimum AMP concentration for which the maximum growth rate was < 0.2 log(OD)/h within the first 20 h of incubation. Each MIC experiment was performed independently at least three times (with at least two technical replicates each), and the mode across all replicates was taken as the final MIC; in the rare cases of a tie, an additional replicate was performed, which was sufficient to resolve it.

For `CC[C@H](C)[C@@H]1NC(=O)CNC(=O)[C@H](CCCNC(=N)N)NC(=O)[C@H](Cc2ccc(O)cc2)NC(=O)[C@@H]2CSSC[C@H](NC1=O)C(=O)N[C@@H](Cc1ccc(O)cc1)C(=O)N[C@@H](CCCNC(=N)N)C(=O)N[C@@H](CCCNC(=N)N)C(=O)N[C@H](C(=O)N[C@@H](CCCNC(=N)N)C(N)=O)CSSC[C@H](NC(=O)[C@H](Cc1c[nH]c3ccccc13)NC(=O)[C@@H](N)CCCCN)C(=O)N[C@@H](Cc1ccccc1)C(=O)N[C@@H](CCCNC(=N)N)C(=O)N[C@@H](C(C)C)C(=O)N2` [Tac1, tachyplesin-1] (H-KWCFRVCYRGICYRRCR-NH2; disulfide 3-16, 7-12 (inferred); N-terminus assumed), the “MIC (mode MIC)” value was 1.2 µM.
